Values after ≈ are worked out from the molar mass of the structure shown.

This is an account of results in PubChem BioAssay AID1996.

The conditions of this data set: buffer; pH 7.4; 200.0 µM.
On to `COC(=O)CN(c1cccc(C)c1)S(=O)(=O)c1ccccc1`, for which the kinetic solubility came out at 41.7 µg/mL (≈ 131 µM). Take `Cc1cnc(C(=O)OCC(=O)NC(=O)c2ccccc2)cn1`: the solubility (kinetic) was > 44.9 µg/mL.

With `O=C(CN1C(=O)C2CCCCC2C1=O)Nc1nccs1` (stereo unspecified), the kinetic solubility is > 44 µg/mL. The result for `CCN1CCN(c2nc(Nc3cccc(F)c3)nc(N)c2[N+](=O)[O-])CC1` reads > 54.2 µg/mL; that for `N#CC1=C(N)Oc2cc(N)ccc2C1c1ccc(Cl)cc1` (stereo unspecified), 3.4 µg/mL (≈ 11.4 µM); that for `CCOc1ccccc1N(C)C(=O)c1cn(C)c(=O)c2ccccc12`, 48.1 µg/mL (≈ 143 µM). For `COc1cccc(CC(=O)NCCCSc2ccccc2)c1`, the solubility (kinetic) was determined as 47.3 µg/mL (≈ 150 µM). The result for `O=C(COC(=O)/C=C/c1ccccc1[N+](=O)[O-])NCc1ccco1` reads 18.7 µg/mL (≈ 56.6 µM); that for `CC1CCCN(c2cc(N(C)CCO)c([N+](=O)[O-])c3nonc23)C1` (stereo unspecified), > 50.3 µg/mL.

The compound `Cn1cccc1/C=C1/C(=O)NC(=O)N(Cc2ccc(F)cc2)C1=O` had a kinetic solubility of 5.4 µg/mL (≈ 16.5 µM). Then `O=C(NCc1cccnc1)Nc1cccc([N+](=O)[O-])c1`, with > 40.8 µg/mL; and `CC(=O)c1cc(CCC(=O)NC2CCCCCC2)oc1C`, with > 43.7 µg/mL. Then `COc1ccccc1CN1CCN(Cc2nc(-c3ccccc3)no2)CC1`, with 50.1 µg/mL (≈ 137 µM).

As to `CCN1CCC(N(C)C2CCCCC2)CC1`, the kinetic solubility was 24 µg/mL (≈ 107 µM).

On to `O=C(NCC(c1ccco1)N1CCCCC1)c1cccnc1` (stereo unspecified), for which the solubility (kinetic) is > 44.9 µg/mL. For `COc1ccc(C(=O)Nc2ccc(Nc3ccccc3)cc2)cc1Br`, the kinetic solubility was < 0.4 µg/mL. The result for `O=C1NCCN1Cc1ccc(Cl)cc1` reads 26.3 µg/mL (≈ 125 µM). For the compound `CSc1nc(-c2ccc(Cl)cc2)c(C#N)c(=O)n1C`, the solubility (kinetic) is < 0.2 µg/mL. The result for `Cc1cc(C)n2nc(C(=O)OCC(=O)N(CC(C)C)C3CCS(=O)(=O)C3)nc2n1` (stereo unspecified) reads > 63.5 µg/mL; that for `Cc1ccc(NC(=O)Cc2ccccc2)cc1S(=O)(=O)N1CCOCC1`, > 56.2 µg/mL.

Regarding `CN1C(C(=O)c2ccccc2)=C(N)c2ccccc2S1(=O)=O`, the solubility (kinetic) was 40.9 µg/mL (≈ 130 µM). Consider `CC(=O)Nc1ccc(C(=O)NCC2CCCCC2)cc1`, for which the solubility (kinetic) amounted to 36.4 µg/mL (≈ 133 µM). Then `Nc1cccnc1Oc1ccccc1F`, with > 30.6 µg/mL. The result for `Cc1sc2ncnc(SCC(=O)NC3CCCC3)c2c1C` reads 5.2 µg/mL (≈ 16.2 µM). The result for `COc1ccc(CC(=O)N2CCCC2)c(OC)c1` reads 36.6 µg/mL (≈ 147 µM).

On to `CCOc1ccc(S(=O)(=O)NC2CCCC2)cc1`, for which the solubility (kinetic) came to 18.3 µg/mL (≈ 67.9 µM). The result for `CC(=O)c1ccccc1Oc1ncnc(N)c1[N+](=O)[O-]` reads > 41.1 µg/mL; that for `CCOC(=O)N1CCC2(CC1)C(C#N)=C(N)OC1=C2C(=O)CCC1`, > 49.7 µg/mL. Then `CCOC(=O)c1c(/N=C/c2ccc(OC)cc2O)sc2c1CCN(C)C2`, with 37 µg/mL (≈ 98.8 µM); and `Cc1ccc(C(CNC(=O)c2ccco2)N2CCN(C)CC2)cc1` (stereo unspecified), with > 49.1 µg/mL; and `O=[N+]([O-])c1cccc(S(=O)(=O)N2CN(c3ccc(Br)cc3)c3nc4ccccc4nc32)c1`, with 1.6 µg/mL (≈ 3.12 µM). Regarding `CCOc1ccccc1CNCC1CCCO1.Cl` (stereo unspecified), the kinetic solubility was 31.5 µg/mL. Then `Cc1ccc(SCC(=O)OCC(=O)NC2CCCCCC2)cc1`, with > 50.3 µg/mL; and `CN(C)C(CNC(=O)c1ccc(Br)cc1)c1ccco1` (stereo unspecified), with 30.4 µg/mL (≈ 90.1 µM).

`COc1cccc(COc2ncnc3sccc23)c1` yielded a kinetic solubility of 37.2 µg/mL (≈ 137 µM). Compound `COCc1cc(OC)nc(-c2csc(C)n2)n1` returned a solubility (kinetic) of 32.5 µg/mL (≈ 129 µM). Then `C=CCNC(=O)C1=NN(c2c(F)c(F)cc(F)c2F)C(=O)CC1`, with > 49.4 µg/mL; and `Cc1ccccc1CSc1[nH]c(=O)ncc1C`, with > 36.9 µg/mL; and `O=C(O)CCn1c(=S)n(CCC(=O)O)c2ccccc21`, with > 44.1 µg/mL. Then `COc1ccc(OCC(=O)N2CCCC2=O)c([N+](=O)[O-])c1`, with 42.8 µg/mL (≈ 145 µM); and `O=C(COC(=O)/C=C/c1ccc(F)cc1)NCc1ccco1`, with 5.1 µg/mL (≈ 16.8 µM); and `Cc1ccc(C(C)NC(=O)C2CCCC2)c(C)c1` (stereo unspecified), with 34.2 µg/mL (≈ 139 µM). As to `COc1ccc2c(c1)CC(C(=O)Nc1ccc(Cl)cc1)/C(=N/O)O2` (stereo unspecified), the solubility (kinetic) was < 0.4 µg/mL.

Regarding `O=C(/C=C/c1ccccc1[N+](=O)[O-])N1CCOCC1`, the kinetic solubility is > 39.3 µg/mL.

For `COc1ccccc1N1CCN(c2cnccn2)CC1`, the solubility (kinetic) was > 40.6 µg/mL. Then `Cc1cc(=O)[nH]c(N2CCCNCC2)n1`, with > 31.2 µg/mL; and `c1ccc2c(CN3CCCCC3)c[nH]c2c1`, with > 32.1 µg/mL.

Consider `Cc1ccc(S(=O)(=O)N2CC(C)C(=O)CC2C)cc1` (stereo unspecified), for which the kinetic solubility amounted to 38.6 µg/mL (≈ 137 µM). The result for `CC(C)(C)NCC(O)c1cc(Cl)c(N)c(Cl)c1.Cl` (stereo unspecified) reads 46.5 µg/mL.

In the case of `Cc1ccc(NC(=O)CN2CCOCC2)c(Br)c1`, the kinetic solubility was > 47 µg/mL. Take `CC(=O)c1c(C)[nH]c(C(=O)NNC(=O)c2ccc(C)cc2)c1C`: the kinetic solubility was > 47 µg/mL.

As a reminder, the solubility (kinetic) is the concentration staying in solution when a stock, usually in DMSO, is diluted into the medium.
